This note sets out measurements from the C3SDB collision cross section collection.

For data set [1] the following is noted: instrument: DT, stepped-field.
For data set [2] the following is noted: instrument: DT, single field, calibrated with Agilent tune mix (Agilent).

Regarding `CCCCCCCCCCCCC=CC[C@@H](O)[C@H](CO)NC(=O)CCCCCCCCCCCCCCCCC` [Cer(36:01)], in data set [1] ([M+H-H2O]+), the “collision cross section (N2)” value is 257.25 Å².
For the compound `CCCCCCCCCCCCCCCCCCCCCC(=O)N[C@@H](CO)[C@H](O)CCCCCCCCCCCCCCC` [Cer(40:00)], the “collision cross section (N2)” value in data set [1] ([M+H]+) stood at 274.03 Å².
For the compound `CCCCCCCCCCCCCCCCCCCCCCCC(=O)N[C@@H](CO)[C@H](O)CCCCCCCCCCCCCCC` [Cer(42:00)], the “collision cross section (N2)” value in data set [1] ([M+H]+) was found to be 280.05 Å²; in data set [1] ([M+Na]+) it was 281.85 Å².
Consider `CCCCCCCCCCCCC=CC[C@@H](O)[C@H](CO)NC(=O)CC=CCCCCCCCCCCCCCCCCCCCCC` [Cer(43:02)], for which the “collision cross section (N2)” value in data set [1] ([M+H-H2O]+) is 275.52 Å².
Regarding `CCCCCCCCCCCCC=CC[C@@H](O)[C@H](CO[C@@H]1O[C@H](CO)[C@@H](O)C(O)C1O)NC(=O)CCCCCCCCCCCCCCC` (some centres not stated) [GlcCer(34:01)], in data set [1] ([M+Na]+), the “collision cross section (N2)” value was 278.95 Å².
`CCCCCCCCCCCCC=CC[C@@H](O)[C@H](CO[C@@H]1O[C@H](CO)[C@@H](O)C(O)C1O)NC(=O)CC=CCCCCCCCCCCCCCCCC` (some centres not stated) [GlcCer(38:02)]: the “collision cross section (N2)” value in data set [1] ([M+H]+) was found to be 287.87 Å²; in data set [1] ([M+Na]+) it was 287.34 Å².
Take `CCCCCCCCCCCCC=CC[C@@H](O)[C@H](CO[C@@H]1O[C@H](CO)[C@@H](O)C(O)C1O)NC(=O)CC=CCC=CCCCCCCCCCCCCC` (some centres not stated) [GlcCer(38:03)]: the “collision cross section (N2)” value in data set [1] ([M+H]+) was found to be 284.43 Å².
In the case of `CCCCCCCCCCCCCCCCCCCCCC(=O)N[C@@H](CO[C@@H]1O[C@H](CO)[C@@H](O)C(O)C1O)[C@H](O)CCCCCCCCCCCCCCC` (some centres not stated) [GlcCer(40:00)], the “collision cross section (N2)” value in data set [1] ([M+Cl]-) was 293.17 Å²; in data set [1] ([M+HCOO]-) it was 298.07 Å²; in data set [1] ([M+H]+) it was 296.24 Å²; in data set [1] ([M+Na]+) it was 297.72 Å².
Regarding `CCCCCCCCCCCCC=CC[C@@H](O)[C@H](CO[C@@H]1O[C@H](CO)[C@@H](O)C(O)C1O)NC(=O)CC=CCCCCCCCCCCCCCCCCCCC` (some centres not stated) [GlcCer(41:02)], the “collision cross section (N2)” value in data set [1] ([M+Na]+) was determined as 296.1 Å².
Regarding `CCCCCCCCCCCCC=CC[C@@H](O)[C@H](CO[C@@H]1O[C@H](CO)[C@@H](O)C(O)C1O)NC(=O)CC=CCC=CCCCCCCCCCCCCCCCCC` (some centres not stated) [GlcCer(42:03)], the “collision cross section (N2)” value in data set [1] ([M+Na]+) stood at 297.28 Å².
`CCCCCCCCCCCCC=CC[C@@H](O)[C@H](CO[C@@H]1O[C@H](CO)[C@@H](O)C(O)C1O)NC(=O)CC=CCC=CCCCCCCCCCCCCCCCCCC` (some centres not stated) [GlcCer(43:03)]: in data set [1] ([M+Na]+), the “collision cross section (N2)” value came to 300.75 Å².
Consider `CCCCCCCCCCCCC=CC[C@@H](O)[C@H](CO[C@@H]1O[C@H](CO)[C@@H](O)C(O)C1O)NC(=O)CCCCCCCCCCCCCCCCCCCCCCCCCCCCCC` (some centres not stated) [GlcCer(49:01)], for which the “collision cross section (N2)” value in data set [1] ([M+Na-2H2O]+) is 317.53 Å².
Regarding `CCCCCCCCCCCCC=CC[C@@H](O)[C@H](CO[C@@H]1O[C@H](CO)[C@@H](O)C(O)C1O)NC(=O)CC=CCC=CCC=CCCCCCCCCCCCCCCCCCCCCCC` (some centres not stated) [GlcCer(50:04)], in data set [1] ([M+H-2H2O]+), the “collision cross section (N2)” value was determined as 314.25 Å².
On to `CCCCC/C=C\C/C=C\CCCCCCCCCC(=O)OC[C@@H](O)COP(=O)([O-])OCC[N+](C)(C)C` [LPC(20:2)], for which the “collision cross section (N2)” value in data set [2] ([M+H]+) is listed as 233.9 Å².
For `CCCCCCCC/C=C\CCCCCCCCCC(=O)OC[C@@H](O)COP(=O)(O)OCCN` [LPE(20:1)], in data set [2] ([M-H]-), the “collision cross section (N2)” value was 218.4 Å².
As to `CCCCCCCCCCCCCCCCC(=O)OC[C@@H](O)COP(=O)(O)OC[C@H](N)C(=O)O` [LPS(17:0)], the “collision cross section (N2)” value in data set [2] ([M-H]-) was found to be 220.1 Å².
On to `CCCCCCCC/C=C\CCCCCCCC(=O)OC[C@@H](O)COP(=O)(O)OC[C@H](N)C(=O)O` [LPS(18:1)], for which the “collision cross section (N2)” value in data set [2] ([M+H]+) was 224.2 Å²; in data set [2] ([M+Na]+), 227 Å²; in data set [2] ([M-H]-), 220.5 Å².
As for `CCCCCCCCCC/C=C\CCCCCCCCCC(=O)OC[C@@H](O)COP(=O)(O)OC[C@H](N)C(=O)O` [LPS(22:1)], in data set [2] ([M-H]-), the “collision cross section (N2)” value was found to be 234.2 Å².
Regarding `CCCCCCCC/C=C\CCCCCCCCCC(=O)O[C@H](COC(=O)CCCCCCCCCCC)COP(=O)(O)O` [PA(32:1)], in data set [2] ([M-H]-), the “collision cross section (N2)” value came to 249 Å².
In the case of `CCCCC/C=C\C/C=C\CCCCCCCCCCCC(=O)O[C@H](COC(=O)CCCCCCCCCCCC)COP(=O)(O)O` [PA(35:02)], in data set [1] ([M+2Na-H]+), the “collision cross section (N2)” value stood at 270 Å².
Take `CCCC/C=C\CCCCCCCC(=O)OC[C@H](COP(=O)(O)O)OC(=O)CCCCCCCCCCCCCCCCCCCCC` [PA(36:1)]: the “collision cross section (N2)” value in data set [2] ([M+NH4]+) came to 277.7 Å²; in data set [2] ([M+Na]+) it was 275.6 Å²; in data set [2] ([M-H]-), 261.6 Å².
As to `CC/C=C\C/C=C\C/C=C\C/C=C\CCCCC(=O)O[C@H](COC(=O)CCCCCCC/C=C\CCCCCCCC)COP(=O)(O)O` [PA(36:05)], in data set [1] ([M+2Na-H]+), the “collision cross section (N2)” value came out at 269.3 Å².
On the same count and under the same terms, next, `CC/C=C\C/C=C\C/C=C\C/C=C\C/C=C\C/C=C\CCC(=O)O[C@H](COC(=O)CCCCCCCCCCCCCCCCC)COP(=O)(O)O` [PA(40:06)]: 280.58 Å².
Consider `CCCCCCCCCCCCCCCCCCCC(=O)OC[C@H](COP(=O)([O-])OCC[N+](C)(C)C)OC(=O)CCCCCCCCCCC` [PC(32:00)], for which the “collision cross section (N2)” value in data set [1] ([M+HCOO]-) turned out to be 286.82 Å²; in data set [1] ([M+H]+), 278.4 Å²; in data set [1] ([M+Na]+), 280.56 Å².
Turning to `CCCCCCCCCCCCCCCCCCCCCCCC(=O)O[C@H](COC(=O)CCCCCCCCC)COP(=O)([O-])OCC[N+](C)(C)C` [PC(34:00)], the “collision cross section (N2)” value in data set [1] ([M+2Na-H]+) is reported as 286.12 Å².
Consider `CCCCCCCCCC/C=C\CCCCCCCCCC(=O)O[C@H](COC(=O)CCCCCCCCCCCC)COP(=O)([O-])OCC[N+](C)(C)C` [PC(35:1)], for which the “collision cross section (N2)” value in data set [2] ([M+H]+) is 289.2 Å².
On to `CCCCC/C=C\C=C/CCCCCCCCC(=O)O[C@H](COC(=O)CCCCCCCCCCCCCCCCC)COP(=O)([O-])OCC[N+](C)(C)C` [PC(36:02)], for which the “collision cross section (N2)” value stood at 290.39 Å² in data set [1] ([M+2Na-H]+); 295.12 Å² in data set [1] ([M+Cl]-); 295.45 Å² in data set [1] ([M+HCOO]-); 285.92 Å² in data set [1] ([M+H]+); 289.17 Å² in data set [1] ([M+K]+); 288.63 Å² in data set [1] ([M+Na]+).
On to `CC/C=C/C=C/C=C/C=C/CCCCCCCC(=O)O[C@H](COC(=O)CCCCCCCCCCCCCCCCC)COP(=O)([O-])OCC[N+](C)(C)C` [PC(36:04)], for which the “collision cross section (N2)” value in data set [1] ([M+Cl]-) stood at 293.08 Å²; in data set [1] ([M+HCOO]-), 292.86 Å²; in data set [1] ([M+Na]+), 285.05 Å².
`CCCCCC/C=C\CCCCCCCCCCCC(=O)O[C@H](COC(=O)CCCCCCCCCCCCCCCCC)COP(=O)([O-])OCC[N+](C)(C)C` [PC(38:1)]: the “collision cross section (N2)” value in data set [2] ([M+H]+) is 298.8 Å².
Consider `CC/C=C\C/C=C\C/C=C\C/C=C\C/C=C\CCCCCC(=O)O[C@H](COC(=O)CCCCCCCCCCCCCCC)COP(=O)([O-])OCC[N+](C)(C)C` [PC(38:05)], for which the “collision cross section (N2)” value is reported as 297.1 Å² in data set [1] ([M+Cl]-) and 297.3 Å² in data set [1] ([M+HCOO]-).
As to `CC/C=C\C/C=C\C/C=C\C/C=C\C/C=C\CCCCCC(=O)O[C@H](COC(=O)CCCCCCCCCCCCCCCCC)COP(=O)([O-])OCC[N+](C)(C)C` [PC(40:05)], in data set [1] ([M+Na]+), the “collision cross section (N2)” value came out at 295.77 Å².
With `CCCCCCCCCCCCCCCCCCCC(=O)O[C@H](COC(=O)CCCCCCCCCCC)COP(=O)(O)OCCN` [PE(32:0)], the “collision cross section (N2)” value in data set [2] ([M+H]+) stood at 271.4 Å².
On the same count and under the same terms, the same measure for `CCCCCCCCCCCCCCCCCCCCCC(=O)OC[C@H](COP(=O)(O)OCCN)OC(=O)CCCCCCCCCCC` [PE(34:0)]: 277.5 Å².
As to `CCCCCCCC/C=C\CCCCCCCC(=O)O[C@H](COC(=O)CCCCCCCCCCCCCCCCC)COP(=O)(O)OCCN` [PE(36:01)], the “collision cross section (N2)” value in data set [1] ([M+2Na-H]+) is recorded as 283.74 Å²; in data set [1] ([M+H]+), 277.02 Å²; in data set [1] ([M+Na]+), 282.21 Å²; in data set [1] ([M-H]-), 273.62 Å².
`CCCCC/C=C\C/C=C\CCCCCCCC(=O)OC[C@H](COP(=O)(O)O[C@H]1C(O)C(O)C(O)[C@@H](O)C1O)OC(=O)CCCCCCCCC/C=C\CCCCCCCCCC` (some centres not stated) [PI(40:3)]: the “collision cross section (N2)” value in data set [2] ([M-H]-) was 299.2 Å².
As for `CC/C=C\C/C=C\C/C=C\C/C=C\C/C=C\C/C=C\CCC(=O)OC[C@@H](COC(=O)CCCCCCC/C=C\CCCCCCCCC)OC(=O)CCCCCCC/C=C\CCCCCCCCC` [TG(60:8)], in data set [2] ([M+NH4]+), the “collision cross section (N2)” value is 338.1 Å².
Same read-out and setting: next, `CC/C=C\C/C=C\C/C=C\C/C=C\C/C=C\CCCCCC(=O)OC[C@@H](COC(=O)CCCC/C=C\C/C=C\C/C=C\C/C=C\CC)OC(=O)CCCCCC/C=C\C/C=C\C/C=C\CCCCC` [TG(60:12)]: 331.7 Å²; `CCCCC/C=C\C/C=C\CCCCCCCC(=O)OC[C@H](COC(=O)CCCCCCCCC/C=C\CCCCCCCCCC)OC(=O)CCCCCCCCC/C=C\CCCCCCCCCC` [TG(62:4)]: 345.8 Å².
On the same count and under the same terms, next, `CC/C=C\C/C=C\C/C=C\CCCCCCCC(=O)OC[C@H](COC(=O)CCCCCCCCCCC/C=C\C/C=C\CCCCC)OC(=O)CCCCCCCCC/C=C\CCCCCCCCCC` [TG(62:6)]: 344.1 Å²; `CC/C=C\C/C=C\C/C=C\C/C=C\C/C=C\C/C=C\CCC(=O)OC[C@@H](COC(=O)CCCC/C=C\C/C=C\C/C=C\C/C=C\CC)OC(=O)CCCCCCCC/C=C\C/C=C\C/C=C\CCCCC` [TG(62:13)]: 335.7 Å².
